These results are taken from patent US8952006B2, “Morpholinoalkyl fumarate compounds, pharmaceutical compositions, and methods of use” (XenoPort, Inc., priority 2012, dated 2015).

In data set [1] the test system is stomach lesions in the rat. Description: Annamalai-Ma gastrointestinal irritation rat model. It is filed as in vivo. The following applies: rats, oral 180 mg-equivalents MMF/kg once per day for 4 days; score 0 (normal mucosa) to 5 (severe ulceration), Table 4. From the text:
At least one MMF prodrug, e.g., dimethyl fumarate, is known to cause gastrointestinal irritation. The Annamalai-Ma gastrointestinal irritation rat model is predictive of gastrointestinal irritation of MMF prodrugs in humans. This animal model has several common features of other published GI irritation animal models including the Whiteley-Dalrymple model described in Models of Inflammation: Measuring Gastrointestinal Ulceration in the Rat, Pharmacology (1998) 10.2.1-10.2.4; as well as the animal models disclosed in Joseph J. Bertone, DVM, MS, DipACVIM. Prevalence of Gastric Ulcers in Elite, Heavy Use Western Performance Horses, AAEP Proceedings/Vol. 46/2000; and İsbíl Büyükcoskun N., Central Effects of Glucagon-like Peptide-1 on Cold Restraint Stress-induced Gastric Mucosal Lesions, Physiol. Res. 48: 451-455, 1999.
In order to assess gastrointestinal irritation using this model, rats are treated orally with either vehicle or the MMF prodrug of the present disclosure (n=10 per group) at 180 mg-equivalents MMF/kg of animal body weight, dosed once per day for 4 days, followed by necropsy and gastrointestinal evaluation at 24 hrs after the final dose. Evans Blue dye is injected IV (tail vein) to visually emphasize any lesions in the gastrointestinal tissue.
Accordingly, rats are dosed once per day for 4 consecutive days with 180 mg-equivalents MMF/kg body weight per day. The animals are fasted overnight prior to necropsy. On Day 5, to help visualize lesions, 1 mL of 1% Evan's blue in saline is injected into the tail vein 30 minutes prior to euthanasia. The animals are euthanized by inhalation of carbon dioxide. A partial necropsy, limited to the abdominal cavities, is then performed. The stomach and small intestine are removed. Residual material is washed away, using an irrigation syringe filled with saline. The stomach is cut along the larger curvature and washed gently with normal saline, and is examined for any lesions. The stomachs are scored in accordance with the scoring system outlined in Table 4.

In data set [2] the test system is imiquimod (IMQ) mouse model of psoriasis. In words: Imiquimod (IMQ) mouse model of psoriasis. It is filed as in vivo. To be noted: oral dose of 90 mg-eq MMF/kg BID for 10 days in male Balb/C mice. Here is the method: Imidquimod model of skin inflammation (Fits et al The Journal of Immunology, 2009, 182: 5836-5845). 10-12 week old BALB/c, I117c+/+ or I117c−/−, or I117re+/+ or I117re−/− mice were administered 50 mg Aldara cream (5% Imidquimod in Graceway, 3M) in the shaved back and right ear daily for 5 days. Clinical scoring and ear thickness measurements were performed daily. Scoring was based upon the manifestation of psoriatic symptoms, such as erythema, scaling and thickness: 0, No disease. 1, Very mild erythema with very mild thickening and scaling involving a small area. 2, Mild erythema with mild thickening and scaling involving a small area. 3, Moderate erythema with moderate thickening and scaling (irregular and patchy) involving a small area (<25%). 4, Severe erythema with marked thickening and scaling (irregular and patchy) involving a moderate area (25-50%). 5, Severe erythema with marked thickening and scaling (irregular and patchy) involving a large area (>50%). Ear and back tissue were harvested on day 5 for histological evaluation.
Efficacy of compounds of the disclosure and DMF is compared in the imiquimod (IMQ) mouse model of psoriasis. Balb/c mice (10 males/group) received daily topical IMQ (5% cream) on shaved back and right ear for 5 days as described above. Animals received oral dose of a representative compound of the disclosure or DMF (45 or 90 mg-eq MMF/kg twice daily) or vehicle from Day −5 to Day 5. Erythema score is the primary outcome measure.
The Erythema score values of the compounds tested at an oral dose of 90 mg-eq MMF/kg BID for 10 days in male Balb/C mice are set forth in Table 3, below.

The conditions of data set [3]: cited from earlier work.

Each structure is given as a SMILES string. Where a name gives a salt, the structure may show the parent alone.

Molecule `COC(=O)/C=C/C(=O)OCCCN1CCOCC1` (as salt: HCl) [Compound 4, Methyl(3-morpholinopropyl)fumarate HCl salt] returned a melting point of 185.2 °C.
For `COC(=O)/C=C/C(=O)OCCCCN1CCOCC1` (as salt: HCl) [Compound 6, Methyl(4-morpholinobutyl)fumarate HCl salt], the melting point came to 145.5 °C.
Still for that read-out and setting: in the case of `COC(=O)/C=C/C(=O)OCCCCCN1CCOCC1` (as salt: HCl) [Compound 8, Methyl(5-morpholinopentyl)fumarate HCl salt] it was 150 °C; in that of `COC(=O)/C=C/C(=O)OCCCCCCN1CCOCC1` (as salt: HCl) [Compound 10, Methyl(6-morpholinohexyl)fumarate HCl salt], 104.1 °C.
Regarding `COC(=O)/C=C/C(=O)OCC(=O)N1CCOCC1` [CC-1, reference compound], the “Stomach Irritation Score” value in data set [1] stood at 2.9.
As for `COC(=O)/C=C/C(=O)OCCN1CCOCC1` [Compound 2, Methyl(2-morpholinoethyl)fumarate HCl salt], in data set [2], the “Erythema Score (% Relative to IMQ)” value is 69 % Relative to IMQ. The “Stomach Irritation Score” value in data set [1] was 0.
For `COC(=O)/C=C/C(=O)OCCCN1CCOCC1` [Compound 4, Methyl(3-morpholinopropyl)fumarate HCl salt], the “Erythema Score (% Relative to IMQ)” value in data set [2] is listed as 73.3 % Relative to IMQ. The “Stomach Irritation Score” value in data set [1] is on record as 0.
For `COC(=O)/C=C/C(=O)OCCCCN1CCOCC1` [Compound 6, Methyl(4-morpholinobutyl)fumarate HCl salt] the same measures were 57.1 % Relative to IMQ and 0.6.
For `COC(=O)/C=C/C(=O)OCCCCCN1CCOCC1` [Compound 8, Methyl(5-morpholinopentyl)fumarate HCl salt] the same measures were 59.3 % Relative to IMQ and 0.
`COC(=O)/C=C/C(=O)OCCCCCCN1CCOCC1` [Compound 10, Methyl(6-morpholinohexyl)fumarate HCl salt]: the “Erythema Score (% Relative to IMQ)” value in data set [2] is 66.7 % Relative to IMQ. Further, the “Stomach Irritation Score” value in data set [1] was 0.
For the molecule `COC(=O)/C=C/C(=O)OC` [DMF, dimethyl fumarate, reference compound], the “Erythema Score (% Relative to IMQ)” value in data set [2] was 74.1 % Relative to IMQ. Moreover, in data set [1], the “Stomach Irritation Score” value is given as 4.6. Besides, the Aqueous solubility result in data set [3] was “poor”.

The melting point is the temperature of the solid-liquid transition.
